Measured values taken from the supplement of paper PMC10307832.

Legend:
Test in all cases: relative viability (nuclei count vs DMSO), 5 days (fraction); higher = more cells survive
Nelarabine + Decitabine = compound: COc1nc(N)nc2c1ncn2[C@@H]1O[C@H](CO)[C@@H](O)[C@@H]1O [Nelarabine] + Nc1ncn([C@H]2C[C@H](O)[C@@H](CO)O2)c(=O)n1 [Decitabine] (partner 2 µM)
Procedure, shortened: (§1)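 Relative viability is defined as nuclei in treated wells over nuclei in vehicle wells. Duplicate plates were run and medians reported. Lung cancer cell lines in 1536-well plates were dosed by pin tool one day after seeding, with one drug or with a fixed anchor-drug dose plus five library-drug doses (not always all listed) in √10 steps, and nuclei were counted after 5 days.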

Nelarabine + Crizotinib = compound: COc1nc(N)nc2c1ncn2[C@@H]1O[C@H](CO)[C@@H](O)[C@@H]1O [Nelarabine] + C[C@@H](Oc1cc(-c2cnn(C3CCNCC3)c2)cnc1N)c1c(Cl)ccc(F)c1Cl [Crizotinib] (partner 1 µM)
Procedure, shortened: as §1

[1] = compound: C=CCn1c(=O)c2cnc(Nc3ccc(N4CCN(C)CC4)cc3)nc2n1-c1cccc(C(C)(C)O)n1 [Adavosertib] + CC(=O)c1c(C)c2cnc(Nc3ccc(N4CCNCC4)cn3)nc2n(C2CCCC2)c1=O [Palbociclib] (partner 0.5 µM)
Procedure, shortened: as §1

Adavosertib + AZD7762 = compound: C=CCn1c(=O)c2cnc(Nc3ccc(N4CCN(C)CC4)cc3)nc2n1-c1cccc(C(C)(C)O)n1 [Adavosertib] + NC(=O)Nc1cc(-c2cccc(F)c2)sc1C(=O)N[C@H]1CCCNC1 [AZD7762] (partner 0.2 µM)
Procedure, shortened: as §1

Cell Line | relative viability (Nelarabine + Decitabine; first compound 0.01 µM) | relative viability (Nelarabine + Decitabine; first compound 0.03162 µM) | relative viability (Nelarabine + Decitabine; first compound 0.1 µM) | relative viability (Nelarabine + Decitabine; first compound 0.3162 µM) | relative viability (Nelarabine + Decitabine; first compound 1 µM) | relative viability (Nelarabine + Crizotinib; first compound 0.01 µM) | relative viability (Nelarabine + Crizotinib; first compound 0.03162 µM) | relative viability (Nelarabine + Crizotinib; first compound 0.1 µM) | relative viability (Nelarabine + Crizotinib; first compound 0.3162 µM) | relative viability (Nelarabine + Crizotinib; first compound 1 µM) | relative viability ([1]; first compound 0.01 µM) | relative viability ([1]; first compound 0.03162 µM) | relative viability ([1]; first compound 0.1 µM) | relative viability ([1]; first compound 0.3162 µM) | relative viability (Adavosertib + AZD7762; first compound 0.01 µM) | relative viability (Adavosertib + AZD7762; first compound 0.03162 µM) | relative viability (Adavosertib + AZD7762; first compound 0.1 µM) | relative viability (Adavosertib + AZD7762; first compound 0.3162 µM)
NCI-H1975 | 0.391 | 0.336 | 0.426 | 0.418 | 0.431 | 1.15 | 0.91 | 1.11 | 1.08 | 1.1 | 0.551 | 0.559 | 0.488 | 0.608 | 0.713 | 0.677 | 0.663 | 0.641
NCI-H3122 | 0.419 | 0.299 |  | 0.463 | 0.476 | 0.265 | 0.197 |  | 0.301 | 0.268 | 0.216 | 0.198 | 0.184 | 0.213 | 0.998 | 0.829 | 0.963 | 0.511
NCI-H838 | 0.54 | 0.432 | 0.473 | 0.513 | 0.466 | 0.975 | 0.575 | 0.766 | 1.02 | 0.792 | 0.232 | 0.211 | 0.224 | 0.213 | 0.986 | 0.831 | 0.722 | 0.626
H3255 | 0.712 | 0.563 | 0.574 | 0.64 | 0.632 | 1.04 | 0.821 | 0.906 | 0.881 | 0.913 | 0.317 | 0.341 | 0.333 | 0.32 | 0.824 | 0.854 | 0.721 | 0.559
NCI-H2085 | 0.536 | 0.535 | 0.52 | 0.605 | 0.439 | 0.966 | 0.618 | 0.766 | 0.88 | 0.965 | 0.479 | 0.458 | 0.519 | 0.577 | 0.995 | 0.909 | 0.731 | 0.409
NCI-H1355 | 0.359 | 0.347 | 0.368 | 0.37 | 0.382 | 1.44 | 0.879 | 1.02 | 1.15 | 1.08 | 0.417 | 0.401 | 0.395 | 0.408 | 0.734 | 0.599 | 0.406 | 0.307
NCI-H1755 | 0.706 | 0.811 | 0.734 | 0.639 | 0.737 | 0.941 | 0.908 | 0.874 | 0.969 | 0.946 | 0.449 | 0.41 | 0.443 | 0.446 | 0.455 | 0.33 | 0.327 | 0.253
NCI-H650 | 0.305 | 0.277 | 0.333 | 0.28 | 0.33 | 0.627 | 0.548 | 0.613 | 0.693 | 0.746 | 0.344 | 0.372 | 0.336 | 0.371 | 0.736 | 0.809 | 0.411 | 0.221
BEN | 0.729 | 0.762 | 0.712 | 0.79 | 0.744 | 1.37 | 0.869 | 0.896 | 0.88 | 0.929 | 0.452 | 0.434 | 0.473 | 0.501 | 0.571 | 0.622 | 0.632 | 0.451
NCI-H322M | 0.68 | 0.662 | 0.659 | 0.718 | 0.678 | 0.884 | 0.88 | 0.853 | 0.948 | 0.837 | 0.439 | 0.479 | 0.417 | 0.463 | 0.472 | 0.427 | 0.387 | 0.337
HCC-366 | 0.419 | 0.346 | 0.296 | 0.31 | 0.34 | 0.594 | 0.222 | 0.51 | 1.01 | 0.618 | 0.396 | 0.388 | 0.471 | 0.329 | 0.292 | 0.21 | 0.184 | 0.0419
EPLC-272H | 0.435 | 0.316 | 0.288 | 0.326 | 0.377 | 1.01 | 0.928 | 1 | 0.946 | 0.861 | 0.331 | 0.32 | 0.35 | 0.317 | 0.161 | 0.151 | 0.127 | 0.135
NCI-H647 | 0.483 | 0.385 | 0.381 | 0.357 | 0.38 | 1.37 | 1.22 | 1.13 | 1.41 | 1.14 | 0.408 | 0.461 | 0.261 | 0.316 | 0.351 | 0.358 | 0.167 | 0.0858
LK-2 | 0.261 |  | 0.272 | 0.341 | 0.319 | 0.222 |  | 0.223 | 0.205 | 0.206 | 0.7 | 0.937 | 0.879 | 0.761 | 0.29 | 0.374 | 0.236 | 0.168
NCI-H460 | 0.707 | 0.726 | 0.476 | 0.525 | 0.539 | 1.32 | 1.1 | 1.02 | 1.08 | 1.05 | 0.182 | 0.19 | 0.181 | 0.125 | 0.376 | 0.507 | 0.169 | 0.0591
NCI-H1944 | 0.423 | 0.449 | 0.457 | 0.416 | 0.427 | 1.12 | 1.06 | 1.16 | 1.08 | 1.02 | 0.298 | 0.317 | 0.317 | 0.319 | 0.511 | 0.31 | 0.23 | 0.164
NCI-H1437 | 0.627 | 0.651 | 0.568 | 0.634 | 0.557 | 1.27 | 0.844 | 0.912 | 0.895 | 0.905 | 0.333 | 0.313 | 0.305 | 0.35 | 1.11 | 1.11 | 1.15 | 0.581
